33 compounds from US20070249620A1, “Urea Derivative” (priority 2004, published 2007) can be followed below.

Where only a bound is given, the exact number is not on record here.

Turning to `CCOc1ccc(F)cc1NC(=O)Nc1ccc(N2CCN(C(=O)OC(C)(C)C)CC2)cc1` [Example 42, 4-{4-[3-(2-ethoxy-5-fluoro-phenyl)-ureido]-phenyl}-piperazine-1-carboxylic acid tert-butyl ester], the melting point (in general, the temperature, or range, at which the solid turns liquid) is 168 to 169 °C.

Compound `CCOc1ccc(Cl)cc1NC(=O)Nc1ccc(N2CCN(C(=O)OC(C)(C)C)CC2)cc1` [Example 43, 4-{4-[3-(5-chloro-2-ethoxy-phenyl)-ureido]-phenyl}-piperazine-1-carboxylic acid tert-butyl ester] came in with a melting point of 165 to 167 °C.

Take `COc1ccc(F)cc1NC(=O)Nc1ccc(N2CCN(C(=O)OC(C)(C)C)CC2)cc1` [Example 44, 4-{4-[3-(5-fluoro-2-methoxy-phenyl)-ureido]-phenyl}-piperazine-1-carboxylic acid tert-butyl ester]: the melting point was in the range of 200 to 202 °C.

In the case of `COc1ccc(F)cc1NC(=O)Nc1ccc(N2CCN(C(=O)OC(C)(C)C)CC2)nc1` [Example 45, 4-{5-[3-(5-fluoro-2-methoxy-phenyl)-ureido]-pyridin-2-yl}-piperazine-1-carboxylic acid tert-butyl ester], the melting point lay in the range of 200 to 201 °C.

The compound `COc1ccc(C)cc1NC(=O)Nc1ccc(N2CCN(C(=O)Oc3ccccc3)CC2)cc1` [Example 47, 4-{4-[3-(2-methoxy-5-methyl-phenyl)-ureido]-phenyl}-piperazine-1-carboxylic acid phenyl ester] came in with a melting point of 179 °C.

Compound `COc1ccc(C)cc1NC(=O)Nc1ccc(N2CCN(C(=O)C3CCCCC3)CC2)cc1` [Example 48, 1-[4-(4-cyclohexanecarbonyl-piperazin-1-yl)-phenyl]-3-(2-methoxy-5-methyl-phenyl)-urea] showed a melting point of 222 °C.

`COc1ccc(C)cc1NC(=O)Nc1ccc(N2CCN(C(=O)Nc3ccccc3)CC2)cc1` [Example 49, 4-{4-[3-(2-methoxy-5-methyl-phenyl)-ureido]-phenyl}-piperazine-1-carboxylic acid phenylamide]: the melting point amounted to 221 °C.

On to `COc1ccc(C)cc1NC(=O)Nc1ccc(N2CCN(C(=O)NCc3ccccc3)CC2)cc1` [Example 50, 4-{4-[3-(2-methoxy-5-methyl-phenyl)-ureido]-phenyl}-piperazine-1-carboxylic acid benzylamide], for which the melting point came to 224 °C.

Compound `COc1ccc(C)cc1NC(=O)Nc1ccc(N2CCN(C(N)=O)CC2)cc1` [Example 51, 4-{4-[3-(2-methoxy-5-methyl-phenyl)-ureido]-phenyl}-piperazine-1-carboxylic acid amide] registered a melting point of 136 °C.

The compound `COc1ccc(C)cc1NC(=O)Nc1ccc(N2CCN(C(=O)Nc3ccccc3F)CC2)cc1` [Example 52, 4-{4-[3-(2-methoxy-5-methyl-phenyl)-ureido]-phenyl}-piperazine-1-carboxylic acid (2-fluoro-phenyl)-amide] had a melting point of 200 to 201 °C.

With `COc1ccc(C)cc1NC(=O)Nc1ccc(N2CCN(C(=O)Nc3c(F)cccc3F)CC2)cc1` [Example 55, 4-{4-[3-(2-methoxy-5-methyl-phenyl)-ureido]-phenyl}-piperazine-1-carboxylic acid (2,6-difluoro-phenyl)-amide], the melting point amounted to 224 °C.

For the compound `COc1ccc(C)cc1NC(=O)Nc1ccc(N2CCN(C(=O)Nc3ccccc3Cl)CC2)cc1` [Example 56, 4-{4-[3-(2-methoxy-5-methyl-phenyl)-ureido]-phenyl}-piperazine-1-carboxylic acid (2-chloro-phenyl)-amide], the melting point was > 240 °C (dec.).

For the compound `CCc1cccc(C)c1NC(=O)N1CCN(c2ccc(NC(=O)Nc3cc(C)ccc3OC)cc2)CC1` [Example 63, 4-{4-[3-(2-methoxy-5-methyl-phenyl)-ureido]-phenyl}-piperazine-1-carboxylic acid (2-ethyl-6-methyl-phenyl)-amide], the melting point was in the range of 207 to 209 °C.

`COc1ccc(Cl)cc1NC(=O)Nc1ccc(N2CCN(C(=O)Nc3ccccc3F)CC2)cc1` [Example 67, 4-{4-[3-(5-chloro-2-methoxy-phenyl)-ureido]-phenyl}-piperazine-1-carboxylic acid (2-fluoro-phenyl)-amide]: the melting point fell in the range of 218 to 220 °C.

For the compound `COc1ccc(Cl)cc1NC(=O)Nc1ccc(N2CCN(C(=O)Nc3ccccc3C(F)(F)F)CC2)cc1` [Example 68, 4-{4-[3-(5-chloro-2-methoxy-phenyl)-ureido]-phenyl}-piperazine-1-carboxylic acid (2-trifluoromethyl-phenyl)-amide], the melting point is 213 to 214 °C.

The compound `COc1ccc(Cl)cc1NC(=O)Nc1ccc(N2CCN(C(=O)Nc3ccccc3C)CC2)cc1` [Example 69, 4-{4-[3-(5-chloro-2-methoxy-phenyl)-ureido]-phenyl}-piperazine-1-carboxylic acid o-tolylamide] returned a melting point of 230 to 232 °C.

In turn, `COc1ccc(C)cc1NC(=O)Nc1ccc(N2CCN(C(=O)Nc3ccc(Br)cc3C)CC2)cc1` [Example 70, 4-{4-[3-(2-methoxy-5-methyl-phenyl)-ureido]-phenyl}-piperazine-1-carboxylic acid (4-bromo-2-methyl-phenyl)-amide] returned a melting point of 191 to 193 °C.

As for `COc1ccc(C)cc1NC(=O)Nc1ccc(N2CCN(C(=O)Nc3ccc(C)cc3C)CC2)cc1` [Example 71, 4-{4-[3-(2-methoxy-5-methyl-phenyl)-ureido]-phenyl}-piperazine-1-carboxylic acid (2,4-dimethyl-phenyl)-amide], the melting point was 196 to 199 °C.

In turn, `COc1ccc(C)cc1NC(=O)Nc1ccc(N2CCN(C(=O)Nc3ccc(F)cc3F)CC2)cc1` [Example 72, 4-{4-[3-(2-methoxy-5-methyl-phenyl)-ureido]-phenyl)-piperazine-1-carboxylic acid (2,4-difluoro-phenyl)-amide] displayed a melting point of 201 to 203 °C.

Regarding `COc1ccc(C)cc1NC(=O)Nc1ccc(N2CCN(C(=O)Nc3ccc(Cl)cc3C)CC2)cc1` [Example 74, 4-{4-[3-(2-methoxy-5-methyl-phenyl)-ureido]-phenyl}-piperazine-1-carboxylic acid (4-chloro-2-methyl-phenyl)-amide], the melting point was in the range of 199 to 201 °C.

For `COc1ccc(C)cc1NC(=O)Nc1ccc(N2CCN(C(=O)Nc3cccc(C)c3C)CC2)cc1` [Example 108, 4-{4-[3-(2-methoxy-5-methyl-phenyl)-ureido]-phenyl}-piperazine-1-carboxylic acid (2,3-dimethyl-phenyl)-amide], the melting point is 217 to 219 °C.

For `COc1ccc(C)cc1NC(=O)Nc1ccc(N2CCN(C(=O)Nc3cccc(Cl)c3C)CC2)cc1` [Example 136, 4-{4-[3-(2-methoxy-5-methyl-phenyl)-ureido]-phenyl}-piperazine-1-carboxylic acid (3-chloro-2-methyl-phenyl)-amide], the melting point was 228 to 230 °C.

Compound `COc1ccc(Cl)cc1NC(=O)Nc1ccc(N2CCN(C(=O)Nc3c(C)cccc3OC)CC2)cc1` [Example 182, 4-{4-[3-(5-chloro-2-methoxy-phenyl)-ureido]-phenyl}-piperazine-1-carboxylic acid (2-methoxy-6-methyl-phenyl)-amide] yielded a melting point of 165 to 167 °C.

The compound `COc1ccc(C)cc1NC(=O)Nc1ccc(N2CCN(C(=O)C3CC4CCC3C4)CC2)cc1` (stereo not drawn) [Example 189, 1-{4-[4-(bicyclo[2.2.1]heptane-2-carbonyl)-piperazin-1-yl]-phenyl}-3-(2-methoxy-5-methyl-phenyl)-urea] showed a melting point of 126 to 128 °C.

For the compound `COc1ccc(C)cc1NC(=O)Nc1ccc(N2CCN(C(=O)C3CCCCC3C)CC2)cc1` (stereo not drawn) [Example 190, 1-(2-methoxy-5-methyl-phenyl)-3-{4-[4-(2-methyl-cyclohexanecarbonyl)-piperazin-1-yl]-phenyl}-urea], the melting point was 208 to 209 °C.

`COc1ccc(C)cc1NC(=O)Nc1ccc(N2CCN(Cc3ccccc3)CC2)cc1` [Example 191, 1-[4-(4-benzyl-piperazin-1-yl)-phenyl]-3-(2-methoxy-5-methyl-phenyl)-urea] had a melting point of 184 to 186 °C.

For the compound `COc1ccc(C)cc1NC(=O)Nc1ccc(N2CCN(c3ncccn3)CC2)cc1` [Example 193, 1-(2-methoxy-5-methyl-phenyl)-3-[4-(4-pyrimidin-2-yl-piperazin-1-yl)-phenyl]-urea], the melting point fell in the range of 220 to 221 °C.

In turn, `COc1ccc(C)cc1NC(=O)Nc1ccc(N2CCN(C(=O)OC(C)(C)C)CC2)cc1C` [Example 194, 4-{4-[3-(2-methoxy-5-methyl-phenyl)-ureido]-3-methyl-phenyl}-piperazine-1-carboxylic acid tert-butyl ester] returned a melting point of 169 to 171 °C.

As for `COc1ccc(C)cc1NC(=O)Nc1ccc(N2CCN(C(=O)OC(C)(C)C)CC2)c(C)c1` [Example 195, 4-{4-[3-(2-methoxy-5-methyl-phenyl)-ureido]-2-methyl-phenyl}-piperazine-1-carboxylic acid tert-butyl ester], the melting point is 103 to 105 °C.

On to `COc1ccc(C)cc1NC(=O)Nc1ccc(N2CCC(C(=O)Nc3c(C)cccc3Cl)CC2)cc1` [Example 196, 1-{4-[3-(2-methoxy-5-methyl-phenyl)-ureido]-phenyl}-piperidine-4-carboxylic acid (2-chloro-6-methyl-phenyl)-amide], for which the melting point was > 250 °C (dec.).

`COc1ccc(C)cc1NC(=O)Nc1ccc2c(c1)C=CN(C(=O)Nc1c(C)cccc1Cl)C2` [Example 202, 6-[3-(2-methoxy-5-methyl-phenyl)-ureido]-3,4-dihydrido-1H-isoquinoline-2-carboxylic acid (2-chloro-6-methyl-phenyl)-amide] yielded a melting point of 216 to 218 °C.

In turn, `COc1ccc(C)cc1NC(=O)Nc1ccc(N2CCC(C(=O)c3ccccc3)CC2)nc1` [Example 205, 1-(4-benzoyl-3,4,5,6-tetrahydro-2H-[1,2′]bipyridinyl-5′-yl)-3-(2-methoxy-5-methyl-phenyl)-urea] registered a melting point of 193 to 194 °C.

Turning to `COc1ccc(C)cc1NC(=O)Nc1ccc(N2CCN(C(=O)C(O)c3ncccc3C)CC2)cc1` (stereo not drawn) [Example 427, 1-(4-{4-[2-hydroxy-2-(3-methyl-pyridin-2-yl)-acetyl]-piperazin-1-yl}-phenyl)-3-(2-methoxy-5-methyl-phenyl)-urea], the melting point lay in the range of 199 to 200 °C.
